Measurements as given in patent US12611380B2, “Solution and method for reducing the virulence of viruses, bacteria, yeasts, or fungus” (priority 2020, dated 2026).
Entries after “also recorded” stand apart in the source; their conditions may differ.

Tested on: COVID-19
Experiment: Nebulized LA outpatient treatment of COVID-19 patients and close contacts (case studies)
Type: in vivo, human
Method: After informed consent of the risks and potential benefits, we nebulized 0.56 ml 11 mM LA every 4 hours to treat two COVID-19 patients. The initial treatment of the […] began after two days of symptoms and the […] began treatment after their first day symptoms. Treatment observations of these two cohabiting patients occurred in their home to alter the likely course of clinical deterioration given their co-morbidities.
They were treated with 0.56 ml 11 mM nebulized LA every 4 hours, around the clock for 7 days. Oxygen saturation levels were recorded by the patient using a pulse oximeter. The initial and final evaluation was conducted as a home visit. All other evaluations were conducted by telephone. The treatment timeline starts the day after the initial home visit. • Day 1: they reported a total loss of taste and smell and mild chest pain. They also reported absence of dyspnea early that day and improved cough. Their oxygen saturation measured 98% (up from 94%). • Day 2: they reported intermittent taste and smell through day 4. Their chest pain resolved. They also reported infrequent loose bowel movements which improved and resolved over the following 3 days. They described no dyspnea. Their oxygen saturation measured 97%. • Day 3: they reported a return of mild dyspnea. Their oxygen saturation measured 95%. • Day 4: they reported dyspnea improvement. Their oxygen saturation measured between 95-98%. • Day 5: they reported that their sense of taste and smell was close to normal. They also reported that their cough had resolved and they had minimal dyspnea. Their oxygen saturation measured 97%. • Day 6: no reported symptoms. Their oxygen saturation measured 97%. • Day 7: no reported symptoms. Their oxygen saturation measured 98%.
After informed consent of the risks and potential benefits, we nebulized 0.56 ml 11 mM LA every 4 hours around the clock for 7 days. […] […] initial oxygen saturation measured 96%.
Oxygen saturation levels were recorded by the patient using a pulse oximeter. The initial and final evaluation was conducted as a home visit. All other evaluations were conducted by telephone. The treatment timeline starts the day after the initial home visit. • Day 1: they reported loss of taste and smell and fatigue. Their wheezing had improved. They reported no dyspnea. Oxygen saturation measured 95%. • Day 2: they reported mild wheezing and dyspnea. Their oxygen saturation measured 94%. An additional treatment of an Albuterol nebulizer and Methylprednisolone Dosepak was started for their asthma exacerbation. When starting nebulized Albuterol, this patient inadvertently discontinued the nebulized LA because they misunderstood instructions. This cessation of nebulized LA was not reported to the treating physician until Day 4. • Day 3: they reported improved loss of taste and smell and cough. Dyspnea worsened. Oxygen saturation measured 98% • Day 4: they reported that the loss of taste and smell improved. They also reported mild wheezing and cough. Oxygen saturation measured 95%. The patient reported the Albuterol nebulizer aggravated dyspnea symptoms. Because of their complaint, the Albuterol nebulizer was discontinued. Nebulized LA treatment was started again. • Day 5: they reported no loss of taste and smell. Minimal cough, wheeze, and dyspnea. Oxygen saturation measured 96% • Day 6: no reported symptoms. Oxygen saturation measured 98%. • Day 7: no reported symptoms. Oxygen saturation measured 98%.
Four lab confirmed COVID-19 cases, 2 probable cases, and 2 close contacts of confirmed COVID-19 cases were nebulized 0.56 ml 11 mM LA (Table 2). Treatment with LA was started after patients were assessed by their primary physician. Patients presented at different points in their COVID-19 infection. Onset of treatment ranged from asymptomatic to 9 days into the symptom course. Two close contacts with cases were treated. They were asymptomatic. Two close contacts with COVID-19 cases were also nebulized using 0.56 ml 11 mM LA every 4 hours. […]

potassium salt of isomerized linoleic acid [ILCS]
COVID-19 Complications (Cases 1): none
Total Duration of Symptoms (Cases 1, 0 days of symptoms before treatment): 0 days
COVID-19 Complications (Cases 2): none
Total Duration of Symptoms (Cases 2, 2 days of symptoms before treatment): 7 days
Total Duration of Symptoms (Cases 3, 4 days of symptoms before treatment): 16 days
Total Duration of Symptoms (Cases 4, 9 days of symptoms before treatment): 23 days
COVID-19 Complications (Close Contacts 1): none
Total Duration of Symptoms (Close Contacts 1, asymptomatic at treatment): 0 days
COVID-19 Complications (Close Contacts 2): none
Total Duration of Symptoms (Close Contacts 2, asymptomatic at treatment): 0 days
COVID-19 Complications (Probable Cases 1): Steroid for asthma
Total Duration of Symptoms (Probable Cases 1, 1 day of symptoms before treatment): 6 days
COVID-19 Complications (Probable Cases 2): none
Total Duration of Symptoms (Probable Cases 2, 3 days of symptoms before treatment): 10 days
side effects to nebulized LA (eight patients of Example 7, nebulized 0.56 ml 11 mM LA, listed as LA): no side effects; also recorded: None of the eight patients reported any side effects
oxygen saturation (husband, treatment Day 1 (94% before treatment)): 98%
oxygen saturation (husband, treatment Day 2): 97%
oxygen saturation (husband, treatment Day 3): 95%
oxygen saturation (husband, treatment Day 4): 95-98%
oxygen saturation (husband, treatment Day 5): 97%
oxygen saturation (husband, treatment Day 6): 97%
oxygen saturation (husband, treatment Day 7): 98%
prevention of symptoms in close contacts (two asymptomatic close contacts of COVID-19 cases): completely effective
side effects to nebulized LA (two patients of Example 6, 0.56 ml 11 mM every 4 hours for 7 days): no side effects
oxygen saturation (wife, Day 2, Albuterol and Methylprednisolone started, LA inadvertently discontinued): 94%
oxygen saturation (wife, Day 3, nebulized LA discontinued, on Albuterol): 98%
oxygen saturation (wife, Day 4, nebulized LA started again): 95%
oxygen saturation (wife, treatment Day 1 (96% before treatment)): 95%
oxygen saturation (wife, treatment Day 5): 96%
oxygen saturation (wife, treatment Day 6): 98%
oxygen saturation (wife, treatment Day 7): 98%
